According to the Kinase Knowledgebase extract (Sharma et al. 2016):

These compounds were tested against ROCK2 (human) (UniProt O75116) (assay: Inhibition of ROCK2 Kinase Activity).
ROCK2 (human), sequence (O75116 whole entry, looked up): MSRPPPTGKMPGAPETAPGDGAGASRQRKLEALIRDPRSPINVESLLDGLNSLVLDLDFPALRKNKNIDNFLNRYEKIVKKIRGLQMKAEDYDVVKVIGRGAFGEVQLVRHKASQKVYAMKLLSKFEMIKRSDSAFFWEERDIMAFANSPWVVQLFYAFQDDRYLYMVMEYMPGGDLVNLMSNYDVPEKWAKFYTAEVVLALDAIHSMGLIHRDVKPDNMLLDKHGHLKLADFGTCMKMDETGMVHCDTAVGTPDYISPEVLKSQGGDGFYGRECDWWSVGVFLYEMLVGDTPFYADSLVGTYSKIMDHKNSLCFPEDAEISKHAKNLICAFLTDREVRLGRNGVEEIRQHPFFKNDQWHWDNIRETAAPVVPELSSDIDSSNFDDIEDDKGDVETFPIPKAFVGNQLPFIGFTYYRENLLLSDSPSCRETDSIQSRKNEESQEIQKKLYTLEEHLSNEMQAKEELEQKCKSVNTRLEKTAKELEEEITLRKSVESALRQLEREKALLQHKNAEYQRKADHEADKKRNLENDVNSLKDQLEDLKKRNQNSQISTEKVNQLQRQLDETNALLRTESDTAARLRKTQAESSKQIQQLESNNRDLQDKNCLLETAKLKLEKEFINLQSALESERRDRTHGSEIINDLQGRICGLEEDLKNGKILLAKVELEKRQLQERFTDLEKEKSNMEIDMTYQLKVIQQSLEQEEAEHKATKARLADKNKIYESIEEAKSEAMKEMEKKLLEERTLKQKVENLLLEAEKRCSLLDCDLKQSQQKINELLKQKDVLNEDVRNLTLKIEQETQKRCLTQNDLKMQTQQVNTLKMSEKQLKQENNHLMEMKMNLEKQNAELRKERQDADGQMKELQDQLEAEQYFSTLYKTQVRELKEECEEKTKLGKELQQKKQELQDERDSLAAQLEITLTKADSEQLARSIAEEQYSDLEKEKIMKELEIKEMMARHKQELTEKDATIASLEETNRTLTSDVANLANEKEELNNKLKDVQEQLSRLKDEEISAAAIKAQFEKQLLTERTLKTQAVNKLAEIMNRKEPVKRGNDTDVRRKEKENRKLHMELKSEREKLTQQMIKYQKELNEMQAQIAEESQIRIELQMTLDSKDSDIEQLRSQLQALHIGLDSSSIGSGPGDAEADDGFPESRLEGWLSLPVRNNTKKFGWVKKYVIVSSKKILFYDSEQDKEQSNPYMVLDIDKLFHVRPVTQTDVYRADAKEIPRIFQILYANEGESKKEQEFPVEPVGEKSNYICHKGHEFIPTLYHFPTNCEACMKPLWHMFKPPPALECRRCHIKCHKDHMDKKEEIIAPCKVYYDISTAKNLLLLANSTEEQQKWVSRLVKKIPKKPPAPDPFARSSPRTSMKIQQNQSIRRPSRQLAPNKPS
`NC(CC(=O)N1CCCC1c1cccc(F)c1)c1ccc(C(=O)Nc2ccncc2)cc1` (centres undefined) was tested, and the IC50 was < 500 nM. In the case of `COC(=O)c1ccc(C2CCCCN2C(=O)CC(N)c2ccc(C(=O)Nc3ccncc3)cc2)cc1` (centres undefined), the IC50 is reported as < 500 nM. An IC50 of 500 to 5000 nM was found for `CC1CN(C(=O)C(N)c2ccc(C(=O)Nc3ccncc3)cc2)CC(C)O1` (centres undefined) in this work. An IC50 of 500 to 5000 nM was found for `CN(CC(N)c1ccc(C(=O)Nc2ccncc2)cc1)S(=O)(=O)c1ccc(Cl)cc1` (centres undefined) in this work. For `N[C@@H](CC(=O)N1CCC[C@H]1c1cccc(F)c1)c1ccc(C(=O)Nc2ccncc2)cc1`, the IC50 was < 500 nM. For `NC(CNS(=O)(=O)Cc1ccccc1)c1ccc(C(=O)Nc2ccncc2)cc1` (centres undefined), the IC50 was < 500 nM. An IC50 of 500 to 5000 nM was found for `CS(=O)(=O)NCCNC(=O)C(N)c1ccc(C(=O)Nc2ccncc2)cc1` (centres undefined) in this work. For `NC(CC(=O)N1CCc2c([nH]c3ccccc23)C1)c1ccc(C(=O)Nc2ccncc2)cc1` (centres undefined), the IC50 was < 500 nM. `COc1ccc(NC(=O)C(N)c2ccc(C(=O)Nc3ccncc3)cc2)cc1` (centres undefined) was tested, and the IC50 was < 500 nM. An IC50 of 500 to 5000 nM was found for `CC(C)C(C)NC(=O)C(N)c1ccc(C(=O)Nc2ccncc2)cc1` (centres undefined) in this work. For `NC(CC(=O)N1CCc2ccc(Cl)cc2C1)c1ccc(C(=O)Nc2ccncc2)cc1` (centres undefined), the IC50 was < 500 nM. For `NC(C(=O)NCc1ccco1)c1ccc(C(=O)Nc2ccncc2)cc1` (centres undefined), the IC50 was < 500 nM. In the case of `NC(CNS(=O)(=O)c1cccc(Cl)c1)c1ccc(C(=O)Nc2ccncc2)cc1` (centres undefined), the IC50 is reported as < 500 nM. An IC50 of 500 to 5000 nM was found for `CN(CC(N)c1ccc(C(=O)Nc2ccncc2)cc1)S(=O)(=O)c1cccc(Cl)c1` (centres undefined) in this work. An IC50 of 500 to 5000 nM was found for `NC(CC(=O)N1CCc2c([nH]c3ccccc23)C1c1cccc(Cl)c1)c1ccc(C(=O)Nc2ccncc2)cc1` (centres undefined) in this work. An IC50 of 500 to 5000 nM was found for `CC1CCC(NC(=O)C(N)c2ccc(C(=O)Nc3ccncc3)cc2)CC1` (centres undefined) in this work. An IC50 of 500 to 5000 nM was found for `NC(c1ccc(C(=O)Nc2ccncc2)cc1)C1CCCN1S(=O)(=O)c1ccccc1F` (centres undefined) in this work. With `NC(CC(=O)N1CCCC1c1ccc(Cl)cc1)c1ccc(C(=O)Nc2ccncc2)cc1` (centres undefined) the IC50 was < 500 nM. In the case of `CC1CC(C)CN(C(=O)C(N)c2ccc(C(=O)Nc3ccncc3)cc2)C1` (centres undefined), the IC50 is reported as < 500 nM. `NC(C(=O)NCc1ccccc1)c1ccc(C(=O)Nc2ccncc2)cc1` (centres undefined) was tested, and the IC50 was < 500 nM. `NC(CC(=O)N1CCc2ccc(F)cc2C1)c1ccc(C(=O)Nc2ccncc2)cc1` (centres undefined) was tested, and the IC50 was < 500 nM. For `NC(CC(=O)N1CCOCC1)c1ccc(C(=O)Nc2ccncc2)cc1` (centres undefined), the IC50 was < 500 nM. An IC50 of 500 to 5000 nM was found for `NC(c1ccc(C(=O)Nc2ccncc2)cc1)C1CCCN1S(=O)(=O)c1ccc(F)cc1` (centres undefined) in this work. An IC50 of 500 to 5000 nM was found for `NC(C(=O)NCCN1CCOCC1)c1ccc(C(=O)Nc2ccncc2)cc1` (centres undefined) in this work. An IC50 of 500 to 5000 nM was found for `CN(C)CCNC(=O)C(N)c1ccc(C(=O)Nc2ccncc2)cc1` (centres undefined) in this work. An IC50 of 500 to 5000 nM was found for `NC(c1ccc(C(=O)Nc2ccncc2)cc1)C1CCCN1S(=O)(=O)c1ccc(Cl)cc1` (centres undefined) in this work. For `NC(C(=O)N1CCC(c2nc3ccccc3o2)CC1)c1ccc(C(=O)Nc2ccncc2)cc1` (centres undefined), the IC50 was < 500 nM. An IC50 of 500 to 5000 nM was found for `CC[C@H](NC(=O)C(N)c1ccc(C(=O)Nc2ccncc2)cc1)c1ccccc1` (some centres undefined) in this work. An IC50 of 500 to 5000 nM was found for `NC(C(=O)N1CCN(Cc2ccccc2F)CC1)c1ccc(C(=O)Nc2ccncc2)cc1` (centres undefined) in this work. For `NC(CC(=O)N1CCCC1c1ccc(F)cc1)c1ccc(C(=O)Nc2ccncc2)cc1` (centres undefined), the IC50 was < 500 nM. An IC50 of 500 to 5000 nM was found for `NC(C(=O)N1CCC(O)(c2ccccc2)CC1)c1ccc(C(=O)Nc2ccncc2)cc1` (centres undefined) in this work. An IC50 of 500 to 5000 nM was found for `NC(CNS(=O)(=O)c1ccc(-c2ccccc2)cc1)c1ccc(C(=O)Nc2ccncc2)cc1` (centres undefined) in this work. An IC50 of 500 to 5000 nM was found for `NC(C(=O)N1CCC(Cc2ccccc2)CC1)c1ccc(C(=O)Nc2ccncc2)cc1` (centres undefined) in this work. `NC(CC(=O)N1CCc2c(Cl)cccc2C1)c1ccc(C(=O)Nc2ccncc2)cc1` (centres undefined) was tested, and the IC50 was < 500 nM. `Cc1cccc(S(=O)(=O)NCC(N)c2ccc(C(=O)Nc3ccncc3)cc2)c1` (centres undefined) was tested, and the IC50 was < 500 nM. `NC(CC(=O)N1CCN(Cc2ccc(F)cc2)CC1)c1ccc(C(=O)Nc2ccncc2)cc1` (centres undefined) was tested, and the IC50 was < 500 nM. An IC50 of 500 to 5000 nM was found for `COCCNC(=O)C(N)c1ccc(C(=O)Nc2ccncc2)cc1` (centres undefined) in this work. `NC(CNS(=O)(=O)c1ccccc1F)c1ccc(C(=O)Nc2ccncc2)cc1` (centres undefined) was tested, and the IC50 was < 500 nM. `NC(CNS(=O)(=O)c1cccs1)c1ccc(C(=O)Nc2ccncc2)cc1` (centres undefined) was tested, and the IC50 was < 500 nM. For `NC(CNS(=O)(=O)c1ccc(F)cc1)c1ccc(C(=O)Nc2ccncc2)cc1` (centres undefined), the IC50 was < 500 nM. With `Cc1ccccc1S(=O)(=O)NCC(N)c1ccc(C(=O)Nc2ccncc2)cc1` (centres undefined) the IC50 was < 500 nM. In the case of `COc1ccccc1CNC(=O)C(N)c1ccc(C(=O)Nc2ccncc2)cc1` (centres undefined), the IC50 is reported as < 500 nM. In the case of `NC(CNS(=O)(=O)c1cccc2nonc12)c1ccc(C(=O)Nc2ccncc2)cc1` (centres undefined), the IC50 is reported as < 500 nM. An IC50 of 500 to 5000 nM was found for `CN(CC(N)c1ccc(C(=O)Nc2ccncc2)cc1)S(=O)(=O)c1ccc(F)cc1` (centres undefined) in this work. `NC(CC(=O)N1CCCC1c1ccc(Cl)c(Cl)c1)c1ccc(C(=O)Nc2ccncc2)cc1` (centres undefined) was tested, and the IC50 was < 500 nM. An IC50 of 500 to 5000 nM was found for `NC(C(=O)NCC1CCCO1)c1ccc(C(=O)Nc2ccncc2)cc1` (centres undefined) in this work. `NC(CC(=O)N1CCCCC1c1ccccc1)c1ccc(C(=O)Nc2ccncc2)cc1` (centres undefined) was tested, and the IC50 was < 500 nM. An IC50 of 500 to 5000 nM was found for `NC(c1ccc(C(=O)Nc2ccncc2)cc1)C1CCCN1S(=O)(=O)c1cccc(Cl)c1` (centres undefined) in this work. For `NC(C(=O)N1CCc2ccccc2C1)c1ccc(C(=O)Nc2ccncc2)cc1` (centres undefined), the IC50 was < 500 nM. An IC50 of 500 to 5000 nM was found for `CC(C)N1CCN(C(=O)C(N)c2ccc(C(=O)Nc3ccncc3)cc2)CC1` (centres undefined) in this work. `CC1CN(C(=O)CC(N)c2ccc(C(=O)Nc3ccncc3)cc2)CC(C)O1` (centres undefined) was tested, and the IC50 was < 500 nM. For `NC(C(=O)N1CCCC1c1cccc(F)c1)c1ccc(C(=O)Nc2ccncc2)cc1` (centres undefined), the IC50 was < 500 nM. In the case of `NC(CNS(=O)(=O)c1ccccc1Cl)c1ccc(C(=O)Nc2ccncc2)cc1` (centres undefined), the IC50 is reported as < 500 nM. In the case of `NC(CNS(=O)(=O)c1cccc2ccccc12)c1ccc(C(=O)Nc2ccncc2)cc1` (centres undefined), the IC50 is reported as < 500 nM. In the case of `NC(C(=O)NCCc1cccs1)c1ccc(C(=O)Nc2ccncc2)cc1` (centres undefined), the IC50 is reported as < 500 nM. An IC50 of 500 to 5000 nM was found for `CN(CC(N)c1ccc(C(=O)Nc2ccncc2)cc1)S(=O)(=O)c1ccccc1F` (centres undefined) in this work. For `NC(CC(=O)N1CCN(CCO)CC1)c1ccc(C(=O)Nc2ccncc2)cc1` (centres undefined), the IC50 was < 500 nM. An IC50 of 500 to 5000 nM was found for `NC(C(=O)N1CCC(c2ccccc2)CC1)c1ccc(C(=O)Nc2ccncc2)cc1` (centres undefined) in this work. An IC50 of 500 to 5000 nM was found for `NC(C(=O)N1CCN(Cc2ccc(F)cc2)CC1)c1ccc(C(=O)Nc2ccncc2)cc1` (centres undefined) in this work. An IC50 of 500 to 5000 nM was found for `COC(=O)c1ccc2c(c1)CCN(C(=O)CC(N)c1ccc(C(=O)Nc3ccncc3)cc1)C2` (centres undefined) in this work. `N[C@H](CC(=O)N1CCC[C@H]1c1cccc(F)c1)c1ccc(C(=O)Nc2ccncc2)cc1` was tested, and the IC50 was < 500 nM. An IC50 of 500 to 5000 nM was found for `CCNC(=O)C(N)c1ccc(C(=O)Nc2ccncc2)cc1` (centres undefined) in this work. `N[C@@H](CC(=O)N1CCC[C@@H]1c1cccc(F)c1)c1ccc(C(=O)Nc2ccncc2)cc1` was tested, and the IC50 was < 500 nM. In the case of `CCS(=O)(=O)NCC(N)c1ccc(C(=O)Nc2ccncc2)cc1` (centres undefined), the IC50 is reported as < 500 nM. `CS(=O)(=O)NCC(N)c1ccc(C(=O)Nc2ccncc2)cc1` (centres undefined) was tested, and the IC50 was < 500 nM. With `NC(CNS(=O)(=O)c1cccc2nsnc12)c1ccc(C(=O)Nc2ccncc2)cc1` (centres undefined) the IC50 was < 500 nM. In the case of `NC(C(=O)NC1Cc2ccccc2C1)c1ccc(C(=O)Nc2ccncc2)cc1` (centres undefined), the IC50 is reported as < 500 nM. `NC(CC(=O)N1CCCC1c1ccccc1)c1ccc(C(=O)Nc2ccncc2)cc1` (centres undefined) was tested, and the IC50 was < 500 nM. An IC50 of 500 to 5000 nM was found for `N[C@@H](C(=O)NCc1ccccc1)c1ccc(C(=O)Nc2ccncc2)cc1` in this work. In the case of `NC(CC(=O)N1Cc2ccccc2C1)c1ccc(C(=O)Nc2ccncc2)cc1` (centres undefined), the IC50 is reported as < 500 nM. An IC50 of 500 to 5000 nM was found for `COc1ccc(CN2CCN(C(=O)CC(N)c3ccc(C(=O)Nc4ccncc4)cc3)CC2)cc1` (centres undefined) in this work. An IC50 of 500 to 5000 nM was found for `NC(C(=O)NCCn1cccn1)c1ccc(C(=O)Nc2ccncc2)cc1` (centres undefined) in this work. In the case of `NC(CC(=O)N1CCC(c2ccccc2)CC1)c1ccc(C(=O)Nc2ccncc2)cc1` (centres undefined), the IC50 is reported as < 500 nM. With `NC(CC(=O)N1CCC(O)(c2ccccc2)CC1)c1ccc(C(=O)Nc2ccncc2)cc1` (centres undefined) the IC50 was < 500 nM.
